# Laboratory results reported in ChEMBL document CHEMBL5537158, “Polymyxins with Potent Antibacterial Activity against Colistin-Resistant Pathogens: Fine-Tuning Hydrophobicity with Unnatural Amino Acids” (J Med Chem, 2024).
# Positions of bridges follow the written chain, without caps; N, C: chain ends. Non-standard residues stand in square brackets, D forms with d. Residues, ends and D or L forms follow the SMILES beside them. *: point of attachment. Benzoyl(4-Ph) = O=C(c1ccc(-c2ccccc2)cc1)*; Dab = NCC[C@H](N)C(=O)O
# Legend:
# Escherichia coli [1] = assay: Antimicrobial activity against […] Escherichia coli harboring mcr-1 assessed as bacterial growth inhibition incubated for 20 hrs by broth microdilution method; type: functional
# Acinetobacter baumannii [2] = assay: Antimicrobial activity against colistin resistant Acinetobacter baumannii clinical isolate 3 assessed as bacterial growth inhibition incubated for 20 hrs by broth microdilution method; type: functional
# Acinetobacter baumannii [3] = assay: Antimicrobial activity against colistin resistant Acinetobacter baumannii ATCC 3658/17 assessed as bacterial growth inhibition incubated for 20 hrs by broth microdilution method; type: functional
# Escherichia coli [4] = assay: Antibacterial activity against […] Escherichia coli clinical isolate 3 assessed as bacterial growth inhibition incubated for 20 hrs by broth microdilution method; type: functional
# Pseudomonas aeruginosa [5] = assay: Antimicrobial activity against Pseudomonas aeruginosa PAO1 assessed as bacterial growth inhibition incubated for 20 hrs by broth microdilution method; type: functional
# Escherichia coli [6] = assay: Potency index, ratio of colistin MIC to test compound MIC for antibacterial activity against Escherichia coli harboring mcr-1; type: functional
# Klebsiella pneumoniae [7] = assay: Antimicrobial activity against colistin resistant Klebsiella pneumoniae clinical isolate 2 assessed as bacterial growth inhibition incubated for 20 hrs by broth microdilution method; type: functional
# Klebsiella pneumoniae [8] = assay: Antimicrobial activity against colistin resistant Klebsiella pneumoniae clinical isolate 3 assessed as bacterial growth inhibition incubated for 20 hrs by broth microdilution method; type: functional
# Klebsiella pneumoniae [9] = assay: Antimicrobial activity against colistin resistant Klebsiella pneumoniae clinical isolate 1 assessed as bacterial growth inhibition incubated for 20 hrs by broth microdilution method; type: functional
# Acinetobacter baumannii [10] = assay: Antimicrobial activity against Acinetobacter baumannii ATCC 19606 assessed as bacterial growth inhibition incubated for 20 hrs by broth microdilution method; type: functional
# Pseudomonas aeruginosa [11] = assay: Potency index, ratio of colistin MIC to test compound MIC for antibacterial activity against colistin resistant Pseudomonas aeruginosa clinical isolate 1; type: functional
# Acinetobacter baumannii [12] = assay: Antimicrobial activity against colistin resistant Acinetobacter baumannii clinical isolate 1 assessed as bacterial growth inhibition incubated for 20 hrs by broth microdilution method; type: functional
# Escherichia coli [13] = assay: Antibacterial activity against […] Escherichia coli clinical isolate 2 assessed as bacterial growth inhibition incubated for 20 hrs by broth microdilution method; type: functional
# Acinetobacter baumannii [14] = assay: Antimicrobial activity against colistin resistant Acinetobacter baumannii clinical isolate 4 assessed as bacterial growth inhibition incubated for 20 hrs by broth microdilution method; type: functional
# Escherichia coli [15] = assay: Potency index, ratio of colistin MIC to test compound MIC for antibacterial activity against […] Escherichia coli; type: functional
# Pseudomonas aeruginosa [16] = assay: Antimicrobial activity against Pseudomonas aeruginosa ATCC 27853 assessed as bacterial growth inhibition incubated for 20 hrs by broth microdilution method; type: functional
# Pseudomonas aeruginosa [17] = assay: Antimicrobial activity against colistin resistant Pseudomonas aeruginosa clinical isolate 1 assessed as bacterial growth inhibition incubated for 20 hrs by broth microdilution method; type: functional
# Acinetobacter baumannii [18] = assay: Antimicrobial activity against colistin resistant Acinetobacter baumannii clinical isolate 2 assessed as bacterial growth inhibition incubated for 20 hrs by broth microdilution method; type: functional
# Klebsiella pneumoniae [19] = assay: Antimicrobial activity against Klebsiella pneumoniae ATCC 13883 assessed as bacterial growth inhibition incubated for 20 hrs by broth microdilution method; type: functional
# Escherichia coli [20] = assay: Antibacterial activity against […] Escherichia coli ATCC 25922 assessed as bacterial growth inhibition incubated for 20 hrs by broth microdilution method; type: functional
# Pseudomonas aeruginosa [21] = assay: Potency index, ratio of polymyxin B MIC to test compound MIC for antibacterial activity against colistin resistant Pseudomonas aeruginosa clinical isolate 1; type: functional
# Escherichia coli [22] = assay: Antibacterial activity against Escherichia coli ATCC 25922 assessed as bacterial growth inhibition incubated for 20 hrs by broth microdilution method; type: functional
# Klebsiella pneumoniae [23] = assay: Antimicrobial activity against colistin resistant Klebsiella pneumoniae clinical isolate 4 assessed as bacterial growth inhibition incubated for 20 hrs by broth microdilution method; type: functional
# Pseudomonas aeruginosa [24] = assay: Antimicrobial activity against colistin resistant Pseudomonas aeruginosa 7197/19 assessed as bacterial growth inhibition incubated for 20 hrs by broth microdilution method; type: functional
# Klebsiella pneumoniae [25] = assay: Antimicrobial activity against colistin resistant Klebsiella pneumoniae ATCC 13883 assessed as bacterial growth inhibition incubated for 20 hrs by broth microdilution method; type: functional
# Escherichia coli [26] = assay: Antibacterial activity against […] Escherichia coli clinical isolate 1 assessed as bacterial growth inhibition incubated for 20 hrs by broth microdilution method; type: functional
# Acinetobacter baumannii [27] = assay: Antimicrobial activity against colistin resistant Acinetobacter baumannii ATCC 19606 assessed as bacterial growth inhibition incubated for 20 hrs by broth microdilution method; type: functional
# Klebsiella pneumoniae [28] = assay: Antimicrobial activity against colistin resistant Klebsiella pneumoniae clinical isolate 5 assessed as bacterial growth inhibition incubated for 20 hrs by broth microdilution method; type: functional
# Klebsiella pneumoniae [29] = assay: Antimicrobial activity against colistin resistant Klebsiella pneumoniae clinical isolate 6 assessed as bacterial growth inhibition incubated for 20 hrs by broth microdilution method; type: functional
# HepG2 = assay: Cytotoxicity against human HepG2 cells incubated for 48 hrs by MTT assay; type: toxicity, cell-based
# Erythrocyte = assay: Hemolytic activity in human RBC at 400 ug/ml after 1 hr; type: toxicity, cell-based; details: erythrocyte, 1 h, at 400 µg/mL
Compound,MIC (Escherichia coli [1]) [µg/mL],MIC (Acinetobacter baumannii [2]) [µg/mL],MIC (Acinetobacter baumannii [3]) [µg/mL],MIC (Escherichia coli [4]) [µg/mL],MIC (Pseudomonas aeruginosa [5]) [µg/mL],MIC (Klebsiella pneumoniae [7]) [µg/mL],MIC (Klebsiella pneumoniae [8]) [µg/mL],MIC (Klebsiella pneumoniae [9]) [µg/mL],MIC (Acinetobacter baumannii [10]) [µg/mL],Ratio (Pseudomonas aeruginosa [11]),MIC (Acinetobacter baumannii [12]) [µg/mL],MIC (Escherichia coli [13]) [µg/mL],MIC (Acinetobacter baumannii [14]) [µg/mL],MIC (Pseudomonas aeruginosa [16]) [µg/mL],MIC (Pseudomonas aeruginosa [17]) [µg/mL],MIC (Acinetobacter baumannii [18]) [µg/mL],MIC (Klebsiella pneumoniae [19]) [µg/mL],MIC (Escherichia coli [20]) [µg/mL],Ratio (Pseudomonas aeruginosa [21]),MIC (Klebsiella pneumoniae [25]) [µg/mL],further results
CCCCCCCC(=O)N[C@@H](CCN)C(=O)N[C@H](C(=O)N[C@@H](CCN)C(=O)N[C@H]1CCNC(=O)[C@H]([C@@H](C)O)NC(=O)[C@H](CCN)NC(=O)[C@H](CCN)NC(=O)[C@H](CCCc2ccccc2)NC(=O)[C@@H](Cc2ccccc2)NC(=O)[C@H](CCN)NC1=O)[C@@H](C)O,0.5,1,< 0.125,1,< 0.125,4,2,8,0.125,2,2,1,2,0.125,2,0.5,< 0.125,,,,Ratio (Escherichia coli [6]): 4; Ratio (Escherichia coli [15]): 4
CCCCCCCC(=O)N[C@@H](CCN)C(=O)N[C@H](C(=O)N[C@@H](CCN)C(=O)N[C@H]1CCNC(=O)[C@H]([C@@H](C)O)NC(=O)[C@H](CCN)NC(=O)[C@H](CCN)NC(=O)[C@H](CC(C)C)NC(=O)[C@@H](Cc2ccc(Br)cc2)NC(=O)[C@H](CCN)NC1=O)[C@@H](C)O,1,2,,2,0.125,,,16,,,8,2,2,,2,,0.125,0.125,2,16,MIC (Escherichia coli [22]): < 0.125 µg/mL; MIC (Klebsiella pneumoniae [23]): 16 µg/mL; MIC (Pseudomonas aeruginosa [24]): 0.125 µg/mL; MIC (Escherichia coli [26]): 2 µg/mL
CCCCCCCC(=O)N[C@@H](CCN)C(=O)N[C@H](C(=O)N[C@@H](CCN)C(=O)N[C@H]1CCNC(=O)[C@H]([C@@H](C)O)NC(=O)[C@H](CCN)NC(=O)[C@H](CCN)NC(=O)[C@H](CCCCCC)NC(=O)[C@@H](Cc2ccccc2)NC(=O)[C@H](CCN)NC1=O)[C@@H](C)O,0.5,,0.25,1,< 0.125,8,4,16,0.125,2,,1,,0.25,2,16,< 0.123,,2,8,MIC (Acinetobacter baumannii [27]): 0.25 µg/mL; MIC (Klebsiella pneumoniae [28]): 16 µg/mL; Ratio (Escherichia coli [6]): 4; MIC (Escherichia coli [22]): < 0.125 µg/mL
CC[C@H](C)[C@@H]1NC(=O)[C@@H](CC(C)C)NC(=O)[C@H](CCN)NC(=O)[C@@H](NC(=O)[C@@H](CO)NC(=O)[C@@H](NC(=O)[C@H](CCN)NC(=O)c2ccc(-c3ccccc3)cc2)[C@@H](C)O)CCNC(=O)[C@H](CC(C)C)NC(=O)[C@H](CCN)NC(=O)[C@H](CCN)NC1=O ({Benzoyl(4-Ph)}-[Dab]T[dS][Dab][Dab][dL]I[Dab][Dab]L; lactam 4-C),4,4,1,2,,1,2,1,,2,,4,,0.5,2,,2,2,2,2,MIC (Acinetobacter baumannii [27]): 0.5 µg/mL; MIC (Klebsiella pneumoniae [28]): 1 µg/mL; MIC (Klebsiella pneumoniae [29]): 0.5 µg/mL; MIC (Pseudomonas aeruginosa [24]): 1 µg/mL; MIC (Escherichia coli [26]): 4 µg/mL
POLYMYXIN B [listing 1 of 2 here],,,,,,,,,,,,,,,,,,,,,IC50 (HepG2): > 1280 µg/mL; Activity (Erythrocyte): < 10%
POLYMYXIN B [listing 2 of 2 here],2,8,8,4,0.25,8,4,> 16,0.25,,> 16,2,16,0.25,4,> 16,0.5,0.125,,16,MIC (Acinetobacter baumannii [27]): 0.125 µg/mL; MIC (Klebsiella pneumoniae [28]): > 16 µg/mL; MIC (Klebsiella pneumoniae [29]): 16 µg/mL; MIC (Escherichia coli [22]): 0.25 µg/mL; MIC (Klebsiella pneumoniae [23]): 16 µg/mL; MIC (Pseudomonas aeruginosa [24]): 8 µg/mL; MIC (Escherichia coli [26]): 2 µg/mL
